US20250109388A1, “METHOD FOR ISOLATING AND CONCENTRATING EXTRACELLULAR VESICLE GROUP DERIVED FROM CANCER CELL, ANALYSIS METHOD, DRUG SELECTION METHOD, KIT, AND ANTI-CANCER AGENT” (THE UNIVERSITY OF TOKYO, priority 2022, published 2025)

Experiments:
human adipocytes [1] = assay: Glycerin release (lipolysis) from human adipocytes treated with EVs; assay type: cell-based; conditions: for Released glycerin level from adipocytes treated with Panc-1 EVs in presence of inhibitor: 10 μM H89, 0.5 μM orlistat, Cay10499
Procedure: (§1) Data are in terms of mean±SD (n=3). **P=0.0025. […] Data are in terms of mean±SD (n=3). […] P=0.65.
FIG. 15 This figure is a graph of glycerin release from adipocytes treated for 24 hours with EVs (1.5 μg) derived from Panc-1 cells, in the presence or absence of an inhibitor of endocytosis. The dosage of the inhibitor is as described in FIG. 14. Data are in terms of mean±SD (n=3). P=0.40 (CPZ), *P=0.027 (Nocodazole), *P=0.012 (CytD). **P=0.0065 (Nystatin), and **P=0.0074 (4° C.); comparison with cells treated with EV alone (control). Statistical analyses were carried out using Welch's t-test. […]
EVs having a mode diameter of 100 to 150 nm were isolated from various sources, except for EVs of about 240 nm derived from Capan-2 cells. […] The expression of exosome markers such as TSG101 and CD63 in EVs was confirmed, whereby it was confirmed that EV isolation was appropriate (see FIG. 1). To investigate the effect of EV, mature human adipocytes were induced from human adipose-derived mesenchymal stem cells (hAD-MSCs) and subjected to an EV treatment (see FIGS. 2 to 4). […] Miapapaca-2 cells, and BxPC-3 cells, but it was not observed in adipocytes treated with EVs derived from Capan-2 cells (see FIG. 5).

adipocytes = assay: Isoproterenol-induced glycerin release from adipocytes; assay type: cell-based, human
Text: as §1
Further, the dependence of the lipolysis induced by EV, under newly synthesized cAMP, was investigated. In general, a β-stimulant such as isoproterenol activates G proteins, and it subsequently activates adenylyl cyclase, which leads to the synthesis of cAMP.

human adipocytes [2] = assay: EV internalization into human adipocytes by β-actin-HiBiT luciferase activity; assay type: cell-based; conditions: Panc-1 EVs, 1 hour; 20 IM CPZ, 10 μM nocodazole, 20 μM CytD, 2.5 μg/mL nystatin
Procedure: The luciferase level is a luciferase level 5 of adipocytes treated for 1 hour with EV ([…]) in the presence or absence of a treatment with an endocytosis inhibitor (20 IM chlorpromazine (CPZ), 10 μM nocodazole, 20 μM cytochalasin D (CytD), or 2.5 μg/mL nystatin, or incubation at 4° C.), which is a value indicated in terms of comparison with a negative control (PBS). Data are in terms of mean±SD (n=3). P=0.74 (CPZ), *P=0.029 (nocodazole), *P=0.032 (CytD), **P=0.0078 (nystatin), and **P=0.0074 (4° C.); comparison with cells treated with EV alone (control).
Wild type: EVs derived from Panc-1 cells (not expressing HiBiT) as a negative control, EV-H and EV-L: EVs derived from Panc-1-ACTB-HiBiT cells cultured with high glucose and low glucose, respectively. […] P=0.61 (EV-H versus EV-L). […] P=0.72. […] The relative luciferase level of adipocytes treated for 1 hour with 10^9 particles of EVs (EV-H and EV-L) derived from Panc-1-ACTB-HiBiT cells was compared with the negative control (PBS). Data are in terms of mean±SD (n=3). **P=0.0011.
Wild type; Panc-1 cells (not expressing HiBiT) as a negative control, EV and EV-NP40; EVs derived from Panc-1-ACTB-HiBiT cells. 10^9 particles per sample were used. Data are in terms of mean±SD (n=3). **P=0.0017 (EV), **P<[…] (EV-NP40), and **P=0.0026 (EV versus EV-NP40). […] The luciferase level of the lysate of adipocytes treated for 1 hour with EVs (10^9 particles) derived from Panc-1-ACTB-HiBiT cells or EV-NP40 was compared with the negative control (PBS), and the results are shown. Data are in terms of mean±SD (n=3). *P=0.045. Statistical analyses were carried out using Welch's t-test.
β-actin is contained as a pan-EV marker in most EVs derived from human serum and human cell lines. To monitor the EV endocytosis level, a reporter cell (Panc-1-ACTB-HiBiT cell) was established by knocking in the HiBiT peptide sequence at the 3′ terminal of the ACTB locus of Panc-1 cell (see FIGS. 11 and 12). A high luciferase activity was detected in a lysate of cells and in EVs derived from these cells, and thus it was confirmed that the β-actin-HiBiT protein is present in the EVs (see FIGS. 13(A) and 13(B).
The luciferase level of the adipocyte lysate was upregualted 1 hour after the addition of EV and was similar to a level in a case where chlorpromazine, a clathrin-mediated endocytosis inhibitor, was used. […] (see FIG. 14).

[3] = 30 μM SQ22536, 24-hour treatment

Row | SMILES | Released glycerin level from adipocytes treated with Panc-1 EVs in presence of inhibitor (human adipocytes [1]) | Luciferase level of adipocyte lysate (EV internalization) with endocytosis inhibitor, vs EV alone (human adipocytes [2]) | further results
1 | COc1nn(-c2ccc(NC(=O)OCc3ccccc3)c(C)c2)c(=O)o1 [Cay10499] | significantly reduced | – | –
2 | O=S(=O)(NCCNC/C=C/c1ccc(Br)cc1)c1cccc2cnccc12 [H89] | significantly reduced | – | –
3 | CCCCCCCCCCC[C@@H](C[C@@H]1OC(=O)[C@H]1CCCCCC)OC(=O)[C@H](CC(C)C)NC=O [Orlistat] | significantly reduced | – | –
4 | Nc1ncnc2c1ncn2C1CCCO1 (stereo not shown) [SQ22536] | – | – | Inhibition of lipolysis induced by EVs derived from Panc-1 (human adipocytes [1]; [3]): did not inhibit; Inhibition of isoproterenol-induced lipolysis (adipocytes; [3]): significantly inhibited
5 | CN(C)CCCN1c2ccccc2Sc2ccc(Cl)cc21 [chlorpromazine] | – | similar | –
6 | C=C1[C@@H](C)[C@H]2[C@H](Cc3ccccc3)NC(=O)[C@]23[C@H](OC(C)=O)/C=C/[C@@](C)(O)C(=O)[C@@H](C)C/C=C/[C@H]3[C@@H]1O [cytochalasin D] | – | significantly lower | –
7 | CC(C)NCC(O)c1ccc(O)c(O)c1 (stereo not shown) [isoproterenol] | – | – | Lipolysis in adipocytes (glycerin release) (adipocytes; 10 μM isoproterenol): induces lipolysis
8 | COC(=O)Nc1nc2ccc(C(=O)c3cccs3)cc2[nH]1 [nocodazole] | – | significantly lower | –
9 | C[C@@H]1[C@H](O)[C@@H](C)/C=C/C=C/CC/C=C/C=C/C=C/C=C/C(O[C@H]2O[C@H](C)[C@@H](O)[C@H](N)[C@@H]2O)CC2O[C@](O)(CC(O)C(O)CCC(O)CC(O)CC(O)CC(=O)O[C@H]1C)CC(O)C2C(=O)O (stereo partly shown) [nystatin] | – | significantly lower | –
